Experimental data: the supplement of paper PMC10307832

What was measured:
Assay in all cases: relative viability (nuclei count vs DMSO), 5 days (fraction); higher = more cells survive
[1] = compound: CCn1c(-c2nonc2N)nc2cnc(Oc3cccc(NC(=O)c4ccc(OCCN5CCOCC5)cc4)c3)cc21 + CC(=O)Nc1cccc(-n2c(=O)n(C3CC3)c(=O)c3c(Nc4ccc(I)cc4F)n(C)c(=O)c(C)c32)c1 [Trametinib] (partner 0.02 µM)
Summary of the method: (§1)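 Each reported value is a median over duplicate plates. It expresses relative viability: treated-well nuclei count divided by vehicle-well nuclei count. Lung cancer cell lines in 1536-well plates were dosed by pin tool a day after seeding, alone with one drug or with a fixed anchor-drug dose plus five library-drug doses (not always all listed) in √10 steps, and nuclei were counted after 5 days.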

[2] = compound: CCC1=CN=CN=C1N2CCN(CC2)CC3=NC4=C(N3)C=C(C=C4)C(F)(F)F + Cc1nc(NC(=O)N2CCC[C@H]2C(N)=O)sc1-c1ccnc(C(C)(C)C(F)(F)F)c1 [Alpelisib] (partner 2 µM)
Summary of the method: as §1

[3] = compound: CCn1c(-c2nonc2N)nc2cnc(Oc3cccc(NC(=O)c4ccc(OCCN5CCOCC5)cc4)c3)cc21 + CS(=O)(=O)CCNCc1ccc(-c2ccc3ncnc(Nc4ccc(OCc5cccc(F)c5)c(Cl)c4)c3c2)o1 [Lapatinib] (partner 2 µM)
Summary of the method: as §1

[4] = compound: CCC1=CN=CN=C1N2CCN(CC2)CC3=NC4=C(N3)C=C(C=C4)C(F)(F)F + O=C(c1cc(Cc2n[nH]c(=O)c3ccccc23)ccc1F)N1CCN(C(=O)C2CC2)CC1 [Olaparib] (partner 8 µM)
Summary of the method: as §1

Cell Line	relative viability ([1]; first compound 0.04 µM)	relative viability ([1]; first compound 0.1265 µM)	relative viability ([1]; first compound 0.4 µM)	relative viability ([1]; first compound 1.265 µM)	relative viability ([1]; first compound 4 µM)	relative viability ([2]; first compound 0.04 µM)	relative viability ([2]; first compound 0.1265 µM)	relative viability ([2]; first compound 0.4 µM)	relative viability ([2]; first compound 1.265 µM)	relative viability ([2]; first compound 4 µM)	relative viability ([3]; first compound 0.04 µM)	relative viability ([3]; first compound 0.1265 µM)	relative viability ([3]; first compound 0.4 µM)	relative viability ([3]; first compound 1.265 µM)	relative viability ([3]; first compound 4 µM)	relative viability ([4]; first compound 0.04 µM)	relative viability ([4]; first compound 0.1265 µM)	relative viability ([4]; first compound 0.4 µM)	relative viability ([4]; first compound 1.265 µM)	relative viability ([4]; first compound 4 µM)
NCI-H2009	0.199	0.192	0.161	0.16	0.142	1.24	1.12	1.12	1.19	1.14	1.02	0.957	0.575	0.312	0.314	0.647	0.649	0.632	0.578	0.594
NCI-H2023	0.708	0.652	0.474	0.317	0.237	0.593	0.576	0.616	0.602	0.571	1.25	0.797	0.515	0.555	0.373	0.53	0.48	0.493	0.418	0.46
NCI-H2085	0.634	0.57	0.521	0.574	0.535	1.05	0.915	0.991	0.879	0.832	0.865	0.75	0.684	0.602	0.714	0.717	0.692	0.728	0.777	0.72
NCI-H2087	0.209	0.293	0.203	0.228	0.231	1.01	0.881	1.05	0.805	0.809		0.693	0.871	0.499	0.677	0.791	0.542	0.623	0.522	0.423
NCI-H2126	0.61	0.594	0.562	0.583	0.57	0.74	0.756	0.722	0.639	0.745	0.764	0.782	0.541	0.742	0.825	0.913	0.877	0.856	0.927	0.901
NCI-H2170	0.885	0.941	0.96	0.926	0.974	0.841	0.753	0.762	0.713	0.685	0.261	0.278	0.274	0.258	0.27	0.632	0.574	0.571	0.537	0.601
NCI-H2228	0.558	0.495	0.345	0.349	0.362	0.726	0.931	0.805	0.651	0.675	1.79	0.81	0.954	0.756	0.727		0.608	0.551	0.658	0.488
NCI-H2347	0.261	0.279	0.298	0.238	0.262	1.07	1.07	0.948	0.769	0.938	0.833	0.911	0.704	0.446	0.536	0.6	0.654	0.603	0.59	0.575
